Biological target: unphosphorylated-BTK kinase domain (UP-BTK), GST-tagged human BTK (389-659aa) (Homo sapiens (Human), UniProt Q06187)
Test: BTK kinase Lanthascreen binding assay
Conditions: Lanthascreen tracer competition, 60 minutes incubation; pIC50 = negative log of the IC50 in molar
In short: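 Tracer-displacement binding assay against the non-phosphorylated enzyme, read by Lanthascreen. Reported: pIC50.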

Sequence of unphosphorylated-BTK kinase domain (UP-BTK), GST-tagged human BTK (389-659aa) (Q06187 389-659): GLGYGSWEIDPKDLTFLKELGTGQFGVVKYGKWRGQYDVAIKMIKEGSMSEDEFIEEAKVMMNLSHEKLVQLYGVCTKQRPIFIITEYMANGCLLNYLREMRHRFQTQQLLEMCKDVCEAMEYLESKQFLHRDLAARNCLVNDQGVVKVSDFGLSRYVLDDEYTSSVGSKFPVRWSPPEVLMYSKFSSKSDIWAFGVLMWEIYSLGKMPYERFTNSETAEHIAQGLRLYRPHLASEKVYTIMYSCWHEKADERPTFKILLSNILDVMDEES

Compound	BTK_I_binding pIC50
Cc1cc(C(=O)Nc2cc(C(F)(F)F)ccn2)ccc1N1C(=O)Nc2c(C(=O)N[C@H]3CCCN(C(=O)/C(C#N)=C/C4CC4)C3)sc3nccc1c23 [Example 895, (S,E)-N-(1-(2-Cyano-3-cyclopropylacryloyl)piperidin-3-yl)-5-(2-methyl-4-((4-(trifluoromethyl)pyridin-2-yl)carbamoyl)phenyl)-4-oxo-4,5-dihydro-3H-1-thia-3,5,8-triazaacenaphthylene-2-carboxamide]	7.0
Cc1cc(Oc2ccccc2)ccc1N1C(=O)Nc2c(C(=O)N[C@@H]3CCCN(C=O)C3)sc3nccc1c23 [Example 885, (R)—N-(1-Formylpiperidin-3-yl)-5-(2-methyl-4-phenoxyphenyl)-4-oxo-4,5-dihydro-3H-1-thia-3,5,8-triazaacenaphthylene-2-carboxamide]	7.0
CN[C@H](C)C(=O)N1CCC[C@@H](NC(=O)c2sc3nccc4c3c2NC(=O)N4c2ccc(Oc3ccccc3)cc2C)C1 [Example 848, 5-(2-Methyl-4-phenoxyphenyl)-N—((R)-1-((R)-2-(methylamino)propanol)piperidin-3-yl)-4-oxo-4,5-dihydro-3H-1-thia-3,5,8-triazaacenaphthylene-2-carboxamide]	7.6

Continued, values first:

BTK_I_binding pIC50	Compound
<6	C=CC(=O)N1CCC[C@@H](NC(=O)c2sc3nccc4c3c2NC(=O)N4c2ccc(OC3CCOCC3)nc2C)C1 [Example 770, (R)—N-(1-Acryloylpiperidin-3-yl)-5-(2-methyl-6-((tetrahydro-2H-pyran-4-yl)oxy)pyridin-3-yl)-4-oxo-4,5-dihydro-3H-1-thia-3,5,8-triazaacenaphthylene-2-carboxamide]
7.3	C=CC(=O)N1CCC[C@@H](NC(=O)c2sc3nccc4c3c2NC(=O)N4c2cc(-c3ccccc3)ncc2C)C1 [Example 695, (R)—N-(1-Acryloylpiperidin-3-yl)-5-(5-methyl-2-phenylpyridin-4-yl)-4-oxo-4,5-dihydro-3H-1-thia-3,5,8-triazaacenaphthylene-2-carboxamide]
7.1	Cc1cc(Oc2ccccc2)ccc1N1C(=O)Nc2c(C(=O)N[C@H]3CCCN(C=O)C3)sc3nccc1c23 [Example 879, (S)—N-(1-Formylpiperidin-3-yl)-5-(2-methyl-4-phenoxyphenyl)-4-oxo-4,5-dihydro-3H-1-thia-3,5,8-triazaacenaphthylene-2-carboxamide]

Same assay, conditions: Lanthascreen tracer competition, 60 minutes incubation; pIC50 = negative log of the IC50 in molar; read-out: BTK_I_binding pIC50 (converted)

Compound	IC50
C=CC(=O)N[C@H]1COC[C@H]1NC(=O)c1sc2nccc3c2c1NC(=O)N3c1cnc(Oc2ccccc2)cc1C (single isomer, unassigned) [Example 668, N-(cis-4-Acrylamidotetrahydrofuran-3-yl)-5-(*)-(4-methyl-6-phenoxypyridin-3-yl)-4-oxo-4,5-dihydro-3H-1-thia-3,5,8-triazaacenaphthylene-2-carboxamide]	15.8 nM

Same assay, conditions: pIC50 = negative log of the IC50 in molar; 60 minutes incubation, 50 nM Tracer 236

Compound	BTK_I_binding pIC50
Cc1cc(Oc2ccccc2F)ccc1N1C(=O)Nc2c(C(=O)NC3CCCN(C)C3)sc3nccc1c23 (stereo in doubt) [Example 57, (R)-5-(4-(2-Fluorophenoxy)-2-methylphenyl)-N-(1-methylpiperidin-3-yl)-4-oxo-4,5-dihydro-3H-1-thia-3,5,8-triazaacenaphthylene-2-carboxamide]	6.8
COC[C@H](C)C(=O)N1CCC[C@@H](NC(=O)c2sc3nccc4c3c2NC(=O)N4c2ccc(Oc3ccccc3)cc2C)C1 [Example 156, N—((R)-1-((S)-3-Methoxy-2-methylpropanoyl)piperidin-3-yl)-5-(2-methyl-4-phenoxyphenyl)-4-oxo-4,5-dihydro-3H-1-thia-3,5,8-triazaacenaphthylene-2-carboxamide]	7.1
CCCN1CCC[C@@H](NC(=O)c2sc3nccc4c3c2NC(=O)N4c2ccc(Oc3ccccc3)cc2C)C1 [Example 60, (R)-5-(2-Methyl-4-phenoxyphenyl)-4-oxo-N-(1-propylpiperidin-3-yl)-4,5-dihydro-3H-1-thia-3,5,8-triazaacenaphthylene-2-carboxamide]	6.8
Cc1cc(Oc2ccccc2)ccc1N1C(=O)Nc2c(C(=O)N[C@@H]3CCN(C(C)C)C3)sc3nccc1c23 (single isomer, unassigned) [Example 93, (R)—N-(1-Isopropylpyrrolidin-3-yl)-5-(*S)-(2-methyl-4-phenoxyphenyl)-4-oxo-4,5-dihydro-3H-1-thia-3,5,8-triazaacenaphthylene-2-carboxamide]	7.1

Next, values leading:

BTK_I_binding pIC50	Compound
6.3	C=CC(=O)N1CCC[C@@H](NC(=O)c2sc3nccc4c3c2NC(=O)N4c2ccc(C)cc2)C1 [Example 271, (R)—N-(1-Acryloylpiperidin-3-yl)-4-oxo-5-(p-tolyl)-4,5-dihydro-3H-1-thia-3,5,8-triazaacenaphthylene-2-carboxamide]
7.4	C=CC(=O)N1CCC[C@@H](NC(=O)c2sc3nccc4c3c2NC(=O)N4c2ccc(OCC)cc2C)C1 [Example 66, (R)—N-(1-Acryloylpiperidin-3-yl)-5-(4-ethoxy-2-methylphenyl)-4-oxo-4,5-dihydro-3H-1-thia-3,5,8-triazaacenaphthylene-2-carboxamide]

Same assay, conditions: unphosphorylated-BTK kinase domain, 50 nM Tracer 236, 60 minutes; pIC50 = negative log of the IC50 in molar

Compound	BTK_I_binding pIC50
C=CC(=O)N1CCC[C@@H](NC(=O)c2sc3nccc4c3c2NC(=O)N4c2cccc(C(C)C)c2)C1 [Example 529, (R)—N-(1-Acryloylpiperidin-3-yl)-5-(3-isopropylphenyl)-4-oxo-4,5-dihydro-3H-1-thia-3,5,8-triazaacenaphthylene-2-carboxamide]	7.6
Cc1cc(Oc2ccccc2)ccc1N1C(=O)Nc2c(C(=O)N(C)[C@@H]3CCN(C)C3)sc3nccc1c23 [Example 338, (R)—N-Methyl-5-(2-methyl-4-phenoxyphenyl)-N-(1-methylpyrrolidin-3-yl)-4-oxo-4,5-dihydro-3H-1-thia-3,5,8-triazaacenaphthylene-2-carboxamide]	5.4
C/C=C/C(=O)N1CCC[C@@H](NC(=O)c2sc3nccc4c3c2NC(=O)N4c2ccc(Oc3ccccc3)cc2C)C1 (single isomer, unassigned) [Example 474, (R,*E)-N-(1-(But-2-enoyl)piperidin-3-yl)-5-(*R)-(2-methyl-4-phenoxyphenyl)-4-oxo-4,5-dihydro-3H-1-thia-3,5,8-triazaacenaphthylene-2-carboxamide]	7.6
Cc1cc(Oc2ccccc2)ccc1N1C(=O)Nc2c(C(=O)N[C@@H]3CCN(C(=O)/C=C/CN)C3)sc3nccc1c23 [Example 382, (R,E)-N-(1-(4-Aminobut-2-enoyl)pyrrolidin-3-yl)-5-(2-methyl-4-phenoxyphenyl)-4-oxo-4,5-dihydro-3H-1-thia-3,5,8-triazaacenaphthylene-2-carboxamide]	7.3

Same assay, conditions: unphosphorylated-BTK kinase domain, 60 minutes incubation, 50 nM Tracer 236; pIC50 = negative log of the IC50 in molar

Compound	BTK_I_binding pIC50
C=CC(=O)N1CC[C@@H](NC(=O)c2sc3nccc4c3c2NC(=O)N4c2ccc(Oc3cccnn3)nc2C)C1 [Example 974, (R)—N-(1-Acryloylpyrrolidin-3-yl)-5-(2-methyl-6-(pyridazin-3-yloxy)pyridin-3-yl)-4-oxo-4,5-dihydro-3H-1-thia-3,5,8-triazaacenaphthylene-2-carboxamide]	5.6

— US10800792B2, “Inhibitors of Bruton's tyrosine kinase and method of their use” (JANSSEN PHARMACEUTICA NV, priority 2015, dated 2020)
